# Test results as given in patent publication US10513521B2, “Compositions and methods for inhibiting BMP” (The Brigham and Women's Hospital, Inc., priority 2014, dated 2019).
# Substitutions are numbered along the chain they refer to.
# Tests used:
# ALK6 = ALK6 (Homo sapiens, UniProt O00238); test: TR-FRET enzymatic ALK kinase assay, ALK6
# Description: (§1) Briefly, the ALKs enzymatic assay was initiated by dispense 2.5 μl enzyme in 1× kinase reaction buffer. The assay plate was then added with compounds followed by incubation at room temperature for 10 minutes. Then 2.5 μl/well substrate was added.
# ALK2 [1] = biological target: T1, ALK2 (Homo sapiens, UniProt Q04771); test: TR-FRET enzymatic ALK kinase assay, ALK2
# T1 sequence (Q04771 21-509): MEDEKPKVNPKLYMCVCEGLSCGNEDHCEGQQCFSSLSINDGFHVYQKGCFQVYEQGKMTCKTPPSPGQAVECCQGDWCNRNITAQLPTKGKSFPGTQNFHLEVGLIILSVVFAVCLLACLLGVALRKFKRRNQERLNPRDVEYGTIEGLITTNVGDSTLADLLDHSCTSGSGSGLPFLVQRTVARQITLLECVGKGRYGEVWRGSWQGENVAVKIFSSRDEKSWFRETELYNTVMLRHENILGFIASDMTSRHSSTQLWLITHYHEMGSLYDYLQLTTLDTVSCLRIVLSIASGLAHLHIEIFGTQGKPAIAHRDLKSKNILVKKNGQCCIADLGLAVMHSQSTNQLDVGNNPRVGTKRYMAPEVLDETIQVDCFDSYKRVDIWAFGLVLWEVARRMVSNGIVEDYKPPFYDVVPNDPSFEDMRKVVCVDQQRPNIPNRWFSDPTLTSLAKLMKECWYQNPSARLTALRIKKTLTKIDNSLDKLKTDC
# Description: as §1
# ALK5 = biological target: T2, ALK5 (Homo sapiens, UniProt P36897); test: TR-FRET enzymatic ALK kinase assay, ALK5
# T2 sequence (P36897 34-503): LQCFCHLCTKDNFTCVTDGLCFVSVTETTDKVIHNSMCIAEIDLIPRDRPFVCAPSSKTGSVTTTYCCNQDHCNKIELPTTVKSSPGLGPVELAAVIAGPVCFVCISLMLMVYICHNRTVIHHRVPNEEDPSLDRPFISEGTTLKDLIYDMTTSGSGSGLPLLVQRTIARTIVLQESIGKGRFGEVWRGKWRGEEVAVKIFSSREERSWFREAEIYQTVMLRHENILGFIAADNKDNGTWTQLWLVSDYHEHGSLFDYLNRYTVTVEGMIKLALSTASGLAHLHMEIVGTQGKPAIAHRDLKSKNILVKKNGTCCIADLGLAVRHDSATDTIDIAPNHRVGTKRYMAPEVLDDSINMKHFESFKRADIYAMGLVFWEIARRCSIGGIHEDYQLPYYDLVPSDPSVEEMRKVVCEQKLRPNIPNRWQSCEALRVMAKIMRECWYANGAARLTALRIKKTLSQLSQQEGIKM
# Description: Six ALK kinase enzyme assays were developed for determination of compound activities on ALK1, ALK2, ALK3, ALK4, ALK5 and ALK6.
# as §1
# ALK2 [2] = biological target: T3, ALK2 (Mus musculus, UniProt P37172); test: HTRF pSMAD1 cell-based ALK2 assay (C2C12 cells, BMP6 as agonist); conditions: cell-based assay, BMP6; read-out: Cell IC50 BMP6
# T3 construct: The C2C12 cell line was selected for the measurement of ALK2 activity using BMP6 as the agonist; host or cells: C2C12
# T3 sequence (P37172 21-509): T1 sequence (Q04771 21-509) with M1V, P10Q, L121I, D162E, P310S
# Description: 2. HTRF Cell-Based ALK1 and ALK2 Assays in 384-Well Plate Format We have developed a cell based ALK1 kinase assay and a cell-based ALK2 assay. The BAOEC cell line was employed for the measurement of ALK1 activity using BMP9 as the agonist. The C2C12 cell line was selected for the measurement of ALK2 activity using BMP6 as the agonist. The kinase specificity was defined by the specific cell line and agonist. The kinase activity was determined by the status of SMD 1/5/8 phosphorylation stimulated by the agonist.
# HyClone Fetal Bovine Serum was obtained from GE healthcare life sciences (Logan, Utah). BMP6 and BMP9 were purchased from R&D System. […] The compound plates and the white solid MB assay plates were purchased from Greiner Bio-one (Monroe, N.C.).
# HTRF optimization experiments were performed in 384 well plate format. […] Pre-starved cells were then plated in 384 well plate in the starvation medium (containing in 0.1% FBS). After 4 hours, compounds were added to the assay plate and incubated for 30 minutes. The assay plate was then added with BMP6 for C2C12 cells or BMP9 for BAOEC cells and incubated for 30 minutes.
# HTRF assay was performed to measure the status of SMAD 1 phosphorylation after stimulated with the agonist (Table 3). This HTRF phospho SMAD1 cell assay was developed and optimized for the homogenous detection of phospho SMAD 1 levels in cells. […] The plate was incubated at room temperature for overnight.
# ALK4 = biological target: T4, ALK4 (Homo sapiens, UniProt P36896); test: TR-FRET enzymatic ALK kinase assay, ALK4
# T4 sequence (P36896 24-505): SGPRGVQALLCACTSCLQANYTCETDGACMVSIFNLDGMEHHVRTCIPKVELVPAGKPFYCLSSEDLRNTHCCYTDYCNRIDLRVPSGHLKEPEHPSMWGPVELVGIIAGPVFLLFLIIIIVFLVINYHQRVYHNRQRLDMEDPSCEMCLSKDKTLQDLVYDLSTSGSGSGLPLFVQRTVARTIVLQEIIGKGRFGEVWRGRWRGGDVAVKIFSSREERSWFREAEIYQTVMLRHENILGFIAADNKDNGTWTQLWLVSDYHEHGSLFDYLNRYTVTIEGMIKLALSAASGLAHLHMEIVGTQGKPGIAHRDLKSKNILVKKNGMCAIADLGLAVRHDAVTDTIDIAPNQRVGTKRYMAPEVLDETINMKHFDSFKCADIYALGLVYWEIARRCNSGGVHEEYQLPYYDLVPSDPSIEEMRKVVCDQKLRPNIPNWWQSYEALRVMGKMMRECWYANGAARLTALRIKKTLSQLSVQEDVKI
# Description: as §1
# ALK3 = ALK3 (Homo sapiens, UniProt P36894); test: TR-FRET enzymatic ALK kinase assay, ALK3
# Description: as §1
# ALK1 = ALK1 (Homo sapiens, UniProt P37023); test: TR-FRET enzymatic ALK kinase assay, ALK1
# ALK1, sequence (P37023 22-503): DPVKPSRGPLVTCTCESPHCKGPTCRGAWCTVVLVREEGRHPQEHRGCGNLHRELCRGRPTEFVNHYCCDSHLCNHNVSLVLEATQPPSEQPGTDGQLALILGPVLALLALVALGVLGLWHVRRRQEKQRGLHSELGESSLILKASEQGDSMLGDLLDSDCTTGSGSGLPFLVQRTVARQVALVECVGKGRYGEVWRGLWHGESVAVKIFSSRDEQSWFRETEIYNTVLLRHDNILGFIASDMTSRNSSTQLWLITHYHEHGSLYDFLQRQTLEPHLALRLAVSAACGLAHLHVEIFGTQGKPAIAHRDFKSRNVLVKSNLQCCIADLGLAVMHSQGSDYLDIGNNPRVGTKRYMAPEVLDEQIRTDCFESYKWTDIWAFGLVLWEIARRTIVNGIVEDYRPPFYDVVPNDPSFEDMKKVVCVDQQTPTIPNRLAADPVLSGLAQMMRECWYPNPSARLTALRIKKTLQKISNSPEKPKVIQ
# Description: as §1
# ALK3, sequence (P36894 24-532): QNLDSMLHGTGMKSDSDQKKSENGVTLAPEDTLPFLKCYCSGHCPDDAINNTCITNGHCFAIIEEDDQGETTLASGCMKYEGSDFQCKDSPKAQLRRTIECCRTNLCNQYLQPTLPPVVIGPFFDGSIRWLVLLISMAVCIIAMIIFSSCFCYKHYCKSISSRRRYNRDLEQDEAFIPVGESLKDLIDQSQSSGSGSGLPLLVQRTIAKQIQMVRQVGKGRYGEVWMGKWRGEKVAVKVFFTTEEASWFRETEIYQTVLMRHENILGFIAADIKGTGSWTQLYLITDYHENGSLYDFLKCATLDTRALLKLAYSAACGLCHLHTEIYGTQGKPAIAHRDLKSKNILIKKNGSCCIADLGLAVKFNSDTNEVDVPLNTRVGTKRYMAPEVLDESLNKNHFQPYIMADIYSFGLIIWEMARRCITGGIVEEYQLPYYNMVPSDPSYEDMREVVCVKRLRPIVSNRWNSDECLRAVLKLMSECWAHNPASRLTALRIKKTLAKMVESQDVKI
# ALK6, sequence (O00238 14-502): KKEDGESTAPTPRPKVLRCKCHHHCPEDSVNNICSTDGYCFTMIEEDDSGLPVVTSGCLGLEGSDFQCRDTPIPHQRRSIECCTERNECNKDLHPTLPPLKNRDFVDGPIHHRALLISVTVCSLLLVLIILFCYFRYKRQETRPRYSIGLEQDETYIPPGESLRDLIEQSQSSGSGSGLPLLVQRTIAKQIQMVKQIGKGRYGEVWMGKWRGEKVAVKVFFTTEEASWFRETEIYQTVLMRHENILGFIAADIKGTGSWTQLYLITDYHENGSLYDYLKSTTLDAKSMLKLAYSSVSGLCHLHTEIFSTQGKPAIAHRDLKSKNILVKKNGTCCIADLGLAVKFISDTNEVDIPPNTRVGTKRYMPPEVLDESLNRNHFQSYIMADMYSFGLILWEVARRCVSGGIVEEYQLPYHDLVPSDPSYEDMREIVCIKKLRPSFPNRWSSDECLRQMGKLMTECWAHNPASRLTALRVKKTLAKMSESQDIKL
smiles,measurement,setting,value
"C[C@@H]1CNC[C@H](C)N1c1ccc(-c2cnc3c(-c4cccc(CS(N)(=O)=O)c4)cnn3c2)cc1 [Compound 73, (3-(6-(4-((2R,6S)-2,6-dimethylpiperazin-1-yl)phenyl)pyrazolo[1,5-a]pyrimidin-3-yl)phenyl)methanesulfonamide]",IC50,ALK6,> 10 µM
same,IC50,ALK2 [1],37 nM
same,IC50,ALK5,> 10 µM
same,IC50,ALK2 [2],750 nM
same,IC50,ALK4,6.4 µM
same,IC50,ALK3,1.4 µM
same,IC50,ALK1,160 nM
"C[C@@H]1CNC[C@H](C)N1c1ccc(-c2cnc3c(-c4cccc(CO)c4)cnn3c2)cc1 [Compound 74, (3-(6-(4-((2R,6S)-2,6-dimethylpiperazin-1-yl)phenyl)pyrazolo[1,5-a]pyrimidin-3-yl)phenyl)methanol]",IC50,ALK6,> 10 µM
same,IC50,ALK2 [1],40 nM
same,IC50,ALK5,> 10 µM
same,IC50,ALK2 [2],80 nM
same,IC50,ALK4,> 10 µM
same,IC50,ALK3,1.7 µM
same,IC50,ALK1,150 nM
"CCS(=O)(=O)c1cccc(-c2cnn3cc(-c4ccc(CCN5CCCCC5)cc4)cnc23)c1 [Compound 106, 3-(3-(ethylsulfonyl)phenyl)-6-(4-(2-(piperidin-1-yl)ethyl)phenyl)pyrazolo[1,5-a]pyrimidine]",IC50,ALK6,> 10 µM
same,IC50,ALK2 [1],66 nM
same,IC50,ALK5,> 10 µM
same,IC50,ALK2 [2],2.2 nM
same,IC50,ALK4,> 10 µM
same,IC50,ALK3,2.2 µM
same,IC50,ALK1,220 nM
"Cc1ccc([S+](=O)([O-])C(F)(F)F)cc1-c1cnn2cc(-c3ccc(N4[C@H](C)CNC[C@@H]4C)cc3)cnc12 [Compound 107, 6-(4-((2R,6S)-2,6-dimethylpiperazin-1-yl)phenyl)-3-(2-methyl-5-((trifluoromethyl)sulfonyl)phenyl)pyrazolo[1,5-a]pyrimidine]",IC50,ALK6,> 10 µM
same,IC50,ALK2 [1],6600 nM
same,IC50,ALK5,> 10 µM
same,IC50,ALK2 [2],2130 nM
same,IC50,ALK4,> 10 µM
same,IC50,ALK3,> 10 µM
same,IC50,ALK1,> 10000 nM
"O=[S+]([O-])(c1cccc(-c2cnn3cc(-c4ccc(C5CCNCC5)cc4)cnc23)c1)C1CC1 [Compound 110, 3-(3-(cyclopropylsulfonyl)phenyl)-6-(4-(piperidin-4-yl)phenyl)pyrazolo[1,5-a]pyrimidine]",IC50,ALK6,> 10 µM
same,IC50,ALK2 [1],50 nM
same,IC50,ALK5,> 10 µM
same,IC50,ALK2 [2],710 nM
same,IC50,ALK4,> 10 µM
same,IC50,ALK3,3.9 µM
same,IC50,ALK1,480 nM
"O=[S+]([O-])(c1cccc(-c2cnn3cc(-c4ccc(CCN5CCCCC5)cc4)cnc23)c1)C1CC1 [Compound 112, 3-(3-(cyclopropylsulfonyl)phenyl)-6-(4-(2-(piperidin-1-yl)ethyl)phenyl)pyrazolo[1,5-a]pyrimidine]",IC50,ALK6,9.8 µM
same,IC50,ALK2 [1],79 nM
same,IC50,ALK5,> 10 µM
same,IC50,ALK2 [2],8 nM
same,IC50,ALK4,> 10 µM
same,IC50,ALK3,8.1 µM
same,IC50,ALK1,1300 nM
"Cc1ccc(S(C)(=O)=O)cc1-c1cnn2cc(-c3ccc(N4[C@H](C)CNC[C@@H]4C)cc3)cnc12 [Compound 116, 6-(4-((2R,6S)-2,6-dimethylpiperazin-1-yl)phenyl)-3-(2-methyl-5-(methylsulfonyl)phenyl)pyrazolo[1,5-a]pyrimidine]",IC50,ALK6,> 10 µM
same,IC50,ALK2 [1],2200 nM
same,IC50,ALK5,> 10 µM
same,IC50,ALK2 [2],319 nM
same,IC50,ALK4,> 10 µM
same,IC50,ALK3,> 10 µM
same,IC50,ALK1,> 10000 nM
"CS(=O)(=O)c1cccc(-c2cnn3cc(-c4ccc(C(F)(F)CN5CCCC5)cc4)cnc23)c1 [Compound 119, 6-(4-(1,1-difluoro-2-(pyrrolidin-1-yl)ethyl)phenyl)-3-(3-(methylsulfonyl)phenyl)pyrazolo[1,5-a]pyrimidine]",IC50,ALK6,> 10 µM
same,IC50,ALK2 [1],210 nM
same,IC50,ALK5,> 10 µM
same,IC50,ALK2 [2],1040 nM
same,IC50,ALK4,> 10 µM
same,IC50,ALK3,> 10 µM
same,IC50,ALK1,530 nM
"CS(=O)(=O)c1cccc(-c2cnn3cc(-c4ccc(C(F)(F)CN5CCCCC5)cc4)cnc23)c1 [Compound 120, 6-(4-(1,1-difluoro-2-(piperidin-1-yl)ethyl)phenyl)-3-(3-(methylsulfonyl)phenyl)pyrazolo[1,5-a]pyrimidine]",IC50,ALK6,> 10 µM
same,IC50,ALK2 [1],> 10000 nM
same,IC50,ALK5,> 10 µM
same,IC50,ALK2 [2],3600 nM
same,IC50,ALK4,> 10 µM
same,IC50,ALK3,> 10 µM
same,IC50,ALK1,> 10000 nM
"CS(=O)(=O)c1cccc(-c2cnn3cc(-c4ccc(C(F)(F)CN5CCOCC5)cc4)cnc23)c1 [Compound 121, 4-(2,2-difluoro-2-(4-(3-(3-(methylsulfonyl)phenyl)pyrazolo[1,5-a]pyrimidin-6-yl)phenyl)ethyl)morpholine]",IC50,ALK6,> 10 µM
same,IC50,ALK2 [1],350 nM
same,IC50,ALK5,> 10 µM
same,IC50,ALK2 [2],836 nM
same,IC50,ALK4,> 10 µM
same,IC50,ALK3,> 10 µM
same,IC50,ALK1,690 nM
"CS(=O)(=O)c1cccc(-c2cnn3cc(-c4ccc(C(F)(F)CN5CCNCC5)cc4)cnc23)c1 [Compound 122, 6-(4-(1,1-difluoro-2-(piperazin-1-yl)ethyl)phenyl)-3-(3-(methylsulfonyl)phenyl)pyrazolo[1,5-a]pyrimidine]",IC50,ALK6,> 10 µM
same,IC50,ALK2 [1],250 nM
same,IC50,ALK5,> 10 µM
same,IC50,ALK2 [2],2 nM
same,IC50,ALK4,> 10 µM
same,IC50,ALK3,> 10 µM
same,IC50,ALK1,370 nM
"CC(O)c1cccc(-c2cnn3cc(-c4ccc(CN5CCCCC5)cc4)cnc23)c1 (stereo not drawn) [Compound 124, 1-(3-(6-(4-(piperidin-1-ylmethyl)phenyl)pyrazolo[1,5-a]pyrimidin-3-yl)phenyl)ethanol]",IC50,ALK6,> 10 µM
same,IC50,ALK2 [1],100 nM
same,IC50,ALK5,> 10 µM
same,IC50,ALK2 [2],5.38 nM
same,IC50,ALK4,> 10 µM
same,IC50,ALK3,> 10 µM
same,IC50,ALK1,440 nM
